The results in this text go back to patent publication US20240270821A1, “GIP/GLP1/GCG TRI-RECEPTOR AGONISTS AND USES THEREOF” (priority 2023, published 2024).

Usually EC50 stands for the midpoint of the concentration-response curve.

Read-outs that look alike come from different tables or passages of the source. Starred links: 1 amine or outer side, 2 acyl side, 3 side chain; linkers in the order of their positions; H or OH if unused. Non-standard residues stand in square brackets, D forms with d. Residues, ends and D or L forms follow the SMILES beside them. Groups on a side chain read outwards from the residue. No end group written: not given here. *: point of attachment. C20 diacid = O=C(O)CCCCCCCCCCCCCCCCCCC(=O)*; C18 diacid = O=C(O)CCCCCCCCCCCCCCCCC(=O)*; αMePhe(2-F) = C[C@](N)(Cc1ccccc1F)C(=O)O; γGlu = O=C(O)[C@H](CCC(=O)[*:2])N[*:1]; αMe4Pal = C[C@](N)(Cc1ccncc1)C(=O)O; αMeY = C[C@](N)(Cc1ccc(O)cc1)C(=O)O; 4Pal = N[C@@H](Cc1ccncc1)C(=O)O; αMeL = CC(C)C[C@](C)(N)C(=O)O; αMeS = C[C@](N)(CO)C(=O)O; Orn = NCCC[C@H](N)C(=O)O; AEEA = NCCOCCOCC(=O)O; Aib = CC(C)(N)C(=O)O

Holding throughout (assay type): cell-based
Assay [1] concerns the target hGcgR (Homo sapiens, UniProt P47871). The experiment in a line: Functional cAMP activation in the presence of 0.1% casein (no HSA). Particulars: read-out: Relative cAMP EC50, hGcgR.
The target of assay [2] is human GcgR (Homo sapiens, UniProt P47871). The assay can be described thus: Functional cAMP activity in the presence of 1% HSA. Particulars: read-out: cAMP Rel EC50, hGcgR.
Chain of human GcgR (P47871 26-477): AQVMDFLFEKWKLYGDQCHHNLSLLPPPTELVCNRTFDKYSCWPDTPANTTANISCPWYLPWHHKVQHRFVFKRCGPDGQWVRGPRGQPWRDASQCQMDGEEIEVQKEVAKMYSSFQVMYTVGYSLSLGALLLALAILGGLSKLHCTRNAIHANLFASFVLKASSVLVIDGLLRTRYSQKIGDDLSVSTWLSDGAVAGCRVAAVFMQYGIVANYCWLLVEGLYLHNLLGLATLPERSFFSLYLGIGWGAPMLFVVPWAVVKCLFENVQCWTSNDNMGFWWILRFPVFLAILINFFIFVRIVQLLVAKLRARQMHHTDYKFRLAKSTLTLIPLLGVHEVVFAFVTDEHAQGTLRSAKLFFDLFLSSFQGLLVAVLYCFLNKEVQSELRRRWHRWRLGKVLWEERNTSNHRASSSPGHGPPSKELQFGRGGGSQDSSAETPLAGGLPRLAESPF
The target in assay [3] is T1, hGIPR (Homo sapiens, UniProt P48546).
T1 sequence (P48546 22-466): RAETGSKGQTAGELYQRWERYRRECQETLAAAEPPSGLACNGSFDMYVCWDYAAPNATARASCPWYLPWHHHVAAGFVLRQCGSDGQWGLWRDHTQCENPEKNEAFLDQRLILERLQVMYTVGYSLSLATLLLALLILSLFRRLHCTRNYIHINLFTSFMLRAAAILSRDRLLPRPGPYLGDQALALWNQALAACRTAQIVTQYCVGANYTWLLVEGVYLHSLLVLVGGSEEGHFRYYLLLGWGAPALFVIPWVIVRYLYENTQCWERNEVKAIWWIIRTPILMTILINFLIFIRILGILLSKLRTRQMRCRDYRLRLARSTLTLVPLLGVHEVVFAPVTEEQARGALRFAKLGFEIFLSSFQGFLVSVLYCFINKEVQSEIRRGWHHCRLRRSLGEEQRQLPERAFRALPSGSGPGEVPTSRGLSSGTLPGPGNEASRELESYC
The assay can be described thus: Functional cAMP activity in the presence of 1% HSA. Particulars: read-out: cAMP Rel EC50, hGIPR.

Assay [4] has as its target T2, hGLP-1R (Homo sapiens, UniProt P43220). The assay can be described thus: Functional cAMP activity in the presence of 1% HSA. Particulars: read-out: cAMP Rel EC50, hGLP-1R.
For assay [5], the target named is T2, hGLP-1R. The assay can be described thus: Functional cAMP activation in the presence of 0.1% casein (no HSA). Particulars: read-out: Relative cAMP EC50, hGLP-1R.
Assay [6] addresses T1, hGIPR. Described as above. Particulars: read-out: Relative cAMP EC50, hGIPR.
The mark [7] stands for this setting: in the presence of 0.1% casein (no HSA), geometric mean.
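For Relative cAMP EC50, hGIPR in this document: intracellular cAMP rise after 30 min at 37 °C read by HTRF against a standard curve, scaled between buffer alone (0%) and top control ligand concentration (100%), four-parameter fit.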
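For Relative cAMP EC50, hGLP-1R in this document: intracellular cAMP rise after 30 min at 37 °C read by HTRF, normalized between buffer only (0%) and maximal control ligand (100%), four-parameter variable-slope fit.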
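For Relative cAMP EC50, hGcgR in this document: intracellular cAMP rise after 30 min at 37 °C, read by HTRF against a cAMP standard curve, scaled from buffer only (0%) to maximal control ligand response (100%).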

T2 sequence (P43220 24-463): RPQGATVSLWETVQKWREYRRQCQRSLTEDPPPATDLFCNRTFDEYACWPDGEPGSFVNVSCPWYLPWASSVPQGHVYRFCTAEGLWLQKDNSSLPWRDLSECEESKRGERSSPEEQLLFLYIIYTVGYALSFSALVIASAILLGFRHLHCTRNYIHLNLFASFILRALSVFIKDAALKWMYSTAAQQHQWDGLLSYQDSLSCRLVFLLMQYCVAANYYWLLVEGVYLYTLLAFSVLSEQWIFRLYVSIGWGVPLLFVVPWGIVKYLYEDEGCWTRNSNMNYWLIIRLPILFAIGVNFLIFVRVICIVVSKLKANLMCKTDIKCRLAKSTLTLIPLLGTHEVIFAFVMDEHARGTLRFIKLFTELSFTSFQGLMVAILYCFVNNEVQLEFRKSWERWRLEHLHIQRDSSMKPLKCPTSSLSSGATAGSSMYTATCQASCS
Chain of hGcgR (P47871 26-477): as the sequence (P47871 26-477) above

In the case of `CC[C@H](C)[C@H](NC(=O)[C@H](CC(C)C)NC(=O)[C@](C)(Cc1ccc(O)cc1)NC(=O)[C@@H](CCC(=O)O)NC(=O)[C@@H](NC(=O)[C@H](Cc1ccccc1)NC(=O)[C@H](CC(N)=O)NC(=O)C(C)(C)NC(=O)[C@H](CCC(N)=O)NC(=O)[C@H](C)NC(=O)[C@H](CCCCNC(=O)COCCOCCNC(=O)CC[C@H](NC(=O)CC[C@H](NC(=O)CCCCCCCCCCCCCCCCC(=O)O)C(=O)O)C(=O)O)NC(=O)[C@H](CCCN)NC(=O)[C@H](CC(=O)O)NC(=O)[C@H](CC(C)C)NC(=O)[C@](C)(CC(C)C)NC(=O)[C@@H](NC(=O)[C@](C)(CO)NC(=O)[C@H](Cc1ccncc1)NC(=O)[C@H](CC(=O)O)NC(=O)[C@H](CO)NC(=O)[C@@H](NC(=O)[C@](C)(Cc1ccccc1F)NC(=O)[C@@H](NC(=O)CNC(=O)[C@H](CCC(N)=O)NC(=O)C(C)(C)NC(=O)[C@@H](N)Cc1ccc(O)cc1)[C@@H](C)O)[C@@H](C)O)[C@@H](C)CC)[C@@H](C)CC)C(=O)N[C@@H](CCC(=O)O)C(=O)NCC(=O)NCC(=O)N1CCC[C@H]1C(=O)N[C@@H](CO)C(=O)N[C@@H](CO)C(=O)NCC(=O)N[C@@H](CCC(=O)O)C(=O)N1CCC[C@H]1C(=O)N1CCC[C@H]1C(=O)N1CCC[C@H]1C(=O)N[C@@H](CCC(=O)O)C(N)=O` [Example 451] (H-Y[Aib]QGT[αMePhe(2-F)]TSD[4Pal][αMeS]I[αMeL]LD[Orn]K([AEEA-γGlu-γGlu-C18 diacid])AQ[Aib]NFI[dE][αMeY]LIEGGPSSGEPPPE-NH2; N-terminus assumed), the EC50 is 4.12 nM in assay [1]; 384 nM in assay [2]; 0.96 nM in assay [3]; 10.9 nM in assay [4]; 0.256 nM in assay [5]; 0.0101 nM in assay [6].
Consider “H-Y[Aib]QGTFTSD[4Pal]SQ[αMeL]LDKK([γGlu-γGlu-C18 diacid])AQ[αMe4Pal]AFIEYLIAGGPSSGAPPPSGSEE-NH2 [Example 960]”, for which the EC50 in assay [1] (setting [7]) was 5.5 nM; in assay [2], 813 nM; in assay [3], 14.1 nM; in assay [4], 161 nM; in assay [5] (setting [7]), 1.51 nM; in assay [6] (setting [7]) it was 0.124 nM.
As to “H-Y[Aib]QGT[αMePhe(2-F)]TSD[4Pal][αMeS]I[αMeL]LD[Orn]K([γGlu-γGlu-C18 diacid])AQ[Aib][Orn]FI[dE][αMeY]LAEGGPSSGEPPPSGGEE-NH2 [Example 590]”, the EC50 is 4.34 nM in assay [1]; 309 nM in assay [2]; 4.25 nM in assay [3]; 58.7 nM in assay [4]; 0.89 nM in assay [5]; 0.105 nM in assay [6].
Take “Y[Aib]QGT[αMePhe(2-F)]TSD[4Pal][αMeS]ILLD[Orn]K([γGlu-γGlu-C18 diacid])AQ[Aib][Orn]FI[dE]YLIEGGPSSGEPPPEGGEE-NH2 [Example 605]”: the concentration for a half-maximal effect (EC50) in assay [1] worked out at 5.49 nM; in assay [2] it was 353 nM; in assay [3], 6.69 nM; in assay [4], 56.2 nM; in assay [5], 0.795 nM; in assay [6], 0.132 nM.
On to “Y[Aib]QGT[αMePhe(2-F)]TSD[4Pal][αMeS]I[αMeL]LD[Orn]K([γGlu-γGlu-C18 diacid])AQ[αMe4Pal]EFI[dE][αMeY]LVEGGPSSGAPPPSGSE-NH2 [Example 1162]”, for which the EC50 in assay [1] (setting [7]) amounted to 2.55 nM; in assay [2], 199 nM; in assay [3], 0.656 nM; in assay [4], 34.5 nM; in assay [5] (setting [7]) it was 0.372 nM; in assay [6] (setting [7]), 0.00818 nM.
With “Y[Aib]QGTFTSD[4Pal]SQ[αMeL]LDKK([AEEA-γGlu-C18 diacid])AQ[αMe4Pal]AFIEYLIE[Aib]GPSSGAPPPSGS-NH2 [Example 810]”, the EC50 in assay [1] (setting [7]) was determined as 3.3 nM; in assay [2], 540 nM; in assay [3], 23.6 nM; in assay [4], 256 nM; in assay [5] (setting [7]), 2.09 nM; in assay [6] (setting [7]), 0.156 nM.
Take “H-Y[Aib]QGT[αMePhe(2-F)]TSD[4Pal]SI[αMeL]LD[Orn]K([AEEA-γGlu-C18 diacid])AQ[αMe4Pal][Orn]FI[dE][αMeY]LIEGGPSSGEPPPSGS-NH2 [Example 706]”: the EC50 in assay [1] came to 2.18 nM; in assay [2] it was 240 nM; in assay [3], 0.913 nM; in assay [4], 23.7 nM; in assay [5] it was 0.19 nM; in assay [6], 0.00911 nM.
Turning to “H-Y[Aib]QGT[αMePhe(2-F)]TSD[4Pal][αMeS]I[αMeL]LD[Orn]K([AEEA-γGlu-γGlu-C18 diacid])AQ[αMe4Pal]EFI[dE][αMeY]LIEGGPSSGEPPPSGSE-NH2 [Example 1179]”, the EC50 in assay [1] (setting [7]) is 2.87 nM; in assay [2], 197 nM; in assay [3] it was 0.58 nM; in assay [4], 37.9 nM; in assay [5] (setting [7]), 0.652 nM; in assay [6] (setting [7]) it was 0.0102 nM.
Regarding “H-Y[Aib]QGTFTSDFSK[αMeL]LDKK([AEEA-γGlu-C20 diacid])AQ[Aib]AFIEWLLAGGPSSGEPPPSEG-NH2 [Example 20]”, the EC50 in assay [1] (setting [7]) was 15.4 nM; in assay [2], 587 nM; in assay [3], 42.3 nM; in assay [4], 326 nM; in assay [5] (setting [7]) it was 2.45 nM; in assay [6] (setting [7]), 0.381 nM.
As for “H-Y[Aib]QGT[αMePhe(2-F)]TSD[4Pal][αMeS]I[αMeL]LD[Orn]K([AEEA-γGlu-C18 diacid])AQ[αMe4Pal]EFI[dE][αMeY]LVEGGPSSGAPPPSGE-NH2 [Example 749]”, the EC50 worked out at 2.21 nM in assay [1]; 28 nM in assay [2]; 1.47 nM in assay [3]; 33.9 nM in assay [4]; 0.293 nM in assay [5]; 0.00718 nM in assay [6].
For “H-Y[Aib]QGTFTSD[4Pal]S[Orn][αMeL]LDKK([γGlu-γGlu-C18 diacid])AQ[αMe4Pal]AFIE[αMe4Pal]LIE[Aib]GPSSGEPPPSGSE-NH2 [Example 990]”, the EC50 in assay [1] (setting [7]) came to 2.47 nM; in assay [2], 276 nM; in assay [3], 9.87 nM; in assay [4], 557 nM; in assay [5] (setting [7]), 5.78 nM; in assay [6] (setting [7]), 0.115 nM.
Turning to “H-Y[Aib]QGTFTSD[4Pal]SQ[αMeL]LD[Orn]K([AEEA-γGlu-C18 diacid])AQ[Aib]AFIE[αMeY]LIEGGPSSGAPPPSGS-NH2 [Example 850]”, the EC50 in assay [1] (setting [7]) is 28.4 nM; in assay [2] it was 3660 nM; in assay [3], 27 nM; in assay [4], 57.8 nM; in assay [5] (setting [7]), 0.451 nM; in assay [6] (setting [7]) it was 0.346 nM.
With `CC[C@H](C)[C@H](NC(=O)[C@H](CC(C)C)NC(=O)[C@](C)(Cc1ccc(O)cc1)NC(=O)[C@@H](CCC(=O)O)NC(=O)[C@@H](NC(=O)[C@H](Cc1ccccc1)NC(=O)[C@H](CCCN)NC(=O)C(C)(C)NC(=O)[C@H](CCC(N)=O)NC(=O)[C@H](C)NC(=O)[C@H](CCCCNC(=O)CC[C@H](NC(=O)CC[C@H](NC(=O)CCCCCCCCCCCCCCCCC(=O)O)C(=O)O)C(=O)O)NC(=O)[C@H](CCCN)NC(=O)[C@H](CC(=O)O)NC(=O)[C@H](CC(C)C)NC(=O)[C@](C)(CC(C)C)NC(=O)[C@@H](NC(=O)[C@](C)(CO)NC(=O)[C@H](Cc1ccncc1)NC(=O)[C@H](CC(=O)O)NC(=O)[C@H](CO)NC(=O)[C@@H](NC(=O)[C@](C)(Cc1ccccc1F)NC(=O)[C@@H](NC(=O)CNC(=O)[C@H](CCC(N)=O)NC(=O)C(C)(C)NC(=O)[C@@H](N)Cc1ccc(O)cc1)[C@@H](C)O)[C@@H](C)O)[C@@H](C)CC)[C@@H](C)CC)C(=O)N[C@@H](CCC(=O)O)C(=O)NCC(=O)NCC(=O)N1CCC[C@H]1C(=O)N[C@@H](CO)C(=O)N[C@@H](CO)C(=O)NCC(=O)N[C@@H](CCC(=O)O)C(=O)N1CCC[C@H]1C(=O)N1CCC[C@H]1C(=O)N1CCC[C@H]1C(=O)N[C@@H](CO)C(N)=O` [Example 375] (H-Y[Aib]QGT[αMePhe(2-F)]TSD[4Pal][αMeS]I[αMeL]LD[Orn]K([γGlu-γGlu-C18 diacid])AQ[Aib][Orn]FI[dE][αMeY]LIEGGPSSGEPPPS-NH2), the EC50 in assay [1] (setting [7]) turned out to be 1.32 nM; in assay [2] it was 137 nM; in assay [3] it was 1.78 nM; in assay [4], 18 nM; in assay [5] (setting [7]), 0.299 nM; in assay [6] (setting [7]) it was 0.0165 nM.
Regarding “H-Y[Aib]QGTFTSDYSI[αMeL]LDKQAAK([AEEA-AEEA-γGlu-C20 diacid])QFVEWLIA[Aib]GPSSGEPPPGTG-NH2 [Example 336]”, the EC50 in assay [1] (setting [7]) was determined as 7.05 nM; in assay [2] it was 1740 nM; in assay [3], 64.4 nM; in assay [4], 227 nM; in assay [5] (setting [7]) it was 0.921 nM; in assay [6] (setting [7]) it was 0.306 nM.
For the compound “H-Y[Aib]QGTFTSD[4Pal]S[Orn][αMeL]LDKK([AEEA-γGlu-C18 diacid])AQ[αMe4Pal]AFIE[αMe4Pal]LIEGGPSSGAPPPSGSEE-NH2 [Example 955]”, the EC50 was found to be 2.65 nM in assay [1] (setting [7]); 366 nM in assay [2]; 42.3 nM in assay [3]; 1380 nM in assay [4]; 7.74 nM in assay [5] (setting [7]); 0.386 nM in assay [6] (setting [7]).
